Results from PubChem BioAssay AID330 (DTP/NCI, 2004).
Where “and” joins values, the source holds several entries; their conditions need not be identical. Identical values can stand only once. Toxic doses and inconclusive results are not listed. How the source made its calls: active means survival T/C of 150% or more; inactive means T/C below 125% in these data.

Tested on: P388 leukemia ip, CD2F1 mice, survival T/C
Test: NCI In Vivo Anticancer Drug Screen. Data for tumor model P388 Leukemia (intraperitoneal) in CD2F1 (CDF1) mice
Conditions: endpoint: median survival time, higher = longer survival
Method in brief: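 Mice carrying the transplanted tumor received test compound or vehicle. Survival was recorded in each group, and the value is the treated-group measurement divided by that of the vehicle-treated control group.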

[1] = dose: 50.0 mg/kg/injection, schedule: Q01DX005 (ip), vehicle: saline with Tween-80
[2] = dose: 100.0 mg/kg/injection, schedule: Q01DX005 (ip), vehicle: saline with Tween-80
[3] = dose: 200.0 mg/kg/injection, schedule: Q01DX005 (ip), vehicle: saline with Tween-80
[4] = dose: 50.0 mg/kg/injection, schedule: Q01DX005 (ip), vehicle: Klucel (hydroxypropylcellulose) (HPC)
[5] = dose: 100.0 mg/kg/injection, schedule: Q01DX005 (ip), vehicle: Klucel (hydroxypropylcellulose) (HPC)
[6] = dose: 200.0 mg/kg/injection, schedule: Q01DX005 (ip), vehicle: Klucel (hydroxypropylcellulose) (HPC)
[7] = dose: 25.0 mg/kg/injection, schedule: Q01DX005 (ip), vehicle: saline with Tween-80
[8] = dose: 12.5 mg/kg/injection, schedule: Q01DX005 (ip), vehicle: Klucel (hydroxypropylcellulose) (HPC)
[9] = dose: 25.0 mg/kg/injection, schedule: Q01DX005 (ip), vehicle: Klucel (hydroxypropylcellulose) (HPC)

Measured: T/C

COC1CCC2(C)C(=CCC3C2CCC2(C)C(OCCOS(=O)(=O)c4ccc(C)cc4)CCC32)C1 (centres undefined)
inactive: dose: 100.0 mg/kg/injection, schedule: Q01DX001 (ip), vehicle: saline with Tween-80 101 % of control | dose: 200.0 mg/kg/injection, schedule: Q01DX001 (ip), vehicle: saline with Tween-80 106 % of control | dose: 400.0 mg/kg/injection, schedule: Q01DX001 (ip), vehicle: saline with Tween-80 100 % of control

CCOC(=O)c1c(-c2ccccc2)csc1NC(=O)CN1CCCCC1
inactive: [1] 98 % of control | [2] 114 % of control | [3] 113 % of control

CC1CCCN(c2cc(N(C)C)c([N+](=O)[O-])cc2F)C1 (centres undefined)
inactive: [4] 99 % of control | [5] 107 % of control | [6] 105 % of control

CCCCC(CC)C(=O)OC(C)CN(CC(C)OC(=O)C(CC)CCCC)C(=O)C(C)OC(=O)C(CC)CCCC (centres undefined)
inactive: [1] 103 % of control | [2] 96 % of control | [3] 103 % of control

C=Cc1cc(C)ccc1C(=O)OCCCCCCCCCCCC
inactive: dose: 50.0 mg/kg/injection, schedule: Q01DX009 (ip), vehicle: Klucel (hydroxypropylcellulose) (HPC) 98 % of control | dose: 100.0 mg/kg/injection, schedule: Q01DX009 (ip), vehicle: Klucel (hydroxypropylcellulose) (HPC) 101 % of control | dose: 200.0 mg/kg/injection, schedule: Q01DX009 (ip), vehicle: Klucel (hydroxypropylcellulose) (HPC) 98 % of control

CCN1C(=O)CC(SC2CC(=O)N(CC)C2=O)C1=O (centres undefined)
inactive: [4] 99 % of control | [5] 95 % of control | [6] 99 % of control

CNC(=O)OCc1c(COC(=O)NC)c2n(c1C)CCS2(=O)=O
inactive: [7] 106 % of control | [1] 101 % of control | [2] 86 % of control | [3] 88 % of control

Oc1ccccc1-c1cc(-c2ccccc2)nc(NCCCCNc2nc(-c3ccccc3)cc(-c3ccccc3O)n2)n1
inactive: [8] 97 % of control | [9] 97 % of control | [4] 94 % of control | [5] 88 % of control

CCCCCCC(O)C/C=C\CCCCCCc1c(C(=O)OC)[nH]c(=S)[nH]c1=O (centres undefined)
inactive: dose: 60.0 mg/kg/injection, schedule: Q01DX005 (ip), vehicle: saline with Tween-80 94 % of control | dose: 120.0 mg/kg/injection, schedule: Q01DX005 (ip), vehicle: saline with Tween-80 97 % of control

Clc1ccc2c(cnc3ccccc32)n1
inactive: dose: 12.5 mg/kg/injection, schedule: Q04DX002 (ip), vehicle: saline with Tween-80 102 % of control | dose: 25.0 mg/kg/injection, schedule: Q04DX002 (ip), vehicle: saline with Tween-80 102 % of control | dose: 50.0 mg/kg/injection, schedule: Q04DX002 (ip), vehicle: saline with Tween-80 101 % of control

O=C(OCc1ccccc1)N(CCF)c1cn(Cc2ccccc2)c(=O)n(Cc2ccccc2)c1=O
inactive: [4] 93 % of control | [5] 96 % of control | [6] 87 % of control

Nc1nc2c(C(=O)N3CCOCC3)nnn2c2ccccc12
inactive: dose: 50.0 mg/kg/injection, schedule: Q01DX009 (ip), vehicle: saline with Tween-80 100 % of control | dose: 100.0 mg/kg/injection, schedule: Q01DX009 (ip), vehicle: saline with Tween-80 92 % of control | dose: 200.0 mg/kg/injection, schedule: Q01DX009 (ip), vehicle: saline with Tween-80 96 % of control

Cc1ccc(-n2nc(C(O)C(O)C(O)CO)c3nc4cc(C)c(C)cc4nc32)cc1 (centres undefined)
inactive: [7] 98 % of control | [1] 100 % of control and 90 % of control | [2] 102 % of control | [3] 100 % of control

COc1cc([C@H]2OC[C@H]3[C@@H]2CO[C@@H]3c2ccc(OC(C)=O)c(OC)c2)ccc1OC(C)=O
inactive: [8] 96 % of control | [9] 93 % of control | [4] 86 % of control
